Data published in patent publication US8378117B2 (priority 2005, dated 2013).

Tests used:
[1] = target: T1, CB2 receptor (Homo sapiens, UniProt P34972); experiment: Functional cell-based assay, CB2 receptor mediated change in CRE β-gal expression (SK-N-MC cells); settings: CB2 Receptor Functional Agonist EC50, forskolin induced β-galactosidase activity, SK-N-MC cells
T1 construct: expressed in transfected cells
Source text: The CB1 and CB2 receptors are G-protein coupled receptors (GPCR), which influence cell function via the Gi-protein. These receptors modulate the activity of intracellular adenylate cyclase, which in turn produces the intracellular signal messenger cyclic-AMP (cAMP).
At baseline, or during non-ligand bound conditions, these receptors are constitutively active and tonically suppress adenylate cyclase activity. The binding of an agonist causes further receptor activation and produces additional suppression of adenylate cyclase activity. The binding of an inverse agonist inhibits the constitutive activity of the receptors and results in an increase in adenylate cyclase activity.
By monitoring intracellular adenylate cyclase activity, the ability of compounds to act as agonists or inverse agonists can be determined.
Test compounds were evaluated in SK-N-MC cells which, using standard transfection procedures, were stably transfected with human cDNA for pcDNA3-CRE β-gal and pcDNA3 CB1 receptor (human) or pcDNA3 CB2 receptor (human). By expressing CRE β-gal, the cells produced β-galactosidase in response to CRE promoter activation by cAMP. Cells expressing CRE β-gal and either the human CB1 or CB2 receptor will produce less β-galactosidase when treated with a CB1/CB2 agonist and will produce more β-galactosidase when treated with a CB1/CB2 inverse agonist.
The cells were grown in 96-well plates under standard cell culture conditions at 37° C. in a 5% CO2 atmosphere and culture media (wherein the media was supplemented with 2 mM L-glutamine, […] sodium pyruvate, 10% FBS (fetal bovine serum) and antibiotics).
For cells expressing CRE β-gal and the CB2 receptor, CB2 agonists reduced β-galactosidase activity in a dose-dependent manner and CB2 inverse agonists increase β-galactosidase activity in a dose-dependent manner.
The change in forskolin induced β-galactosidase activity was determined by setting a vehicle treated cell's activity value at 100% and expressing the β-galactosidase activity measured in a corresponding compound treated cell as a percent of the vehicle treated cell activity.
The EC50 value for functional activity for compounds tested was calculated by linear regression and was obtained from studies in which varying compound concentrations were used.

[2] = target: T2, CB1 receptor (Homo sapiens, UniProt P21554); experiment: cell-based; settings: CB1 Receptor Functional Agonist EC50, SK-N-MC cells, forskolin induced β-galactosidase activity
T2 construct: expressed in transfected cells
Outline: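 SK-N-MC cells stably co-expressing human CB1 and a CRE-β-galactosidase reporter; forskolin-induced β-gal activity measured after compound treatment, as % of vehicle-treated cells (100%). EC50 by linear regression from concentration series; otherwise % change at a single concentration.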

[3] = target: T2, CB1 receptor; experiment: Binding assay for CB1 agonists or inverse agonists (SK-N-MC membranes, [3H]-CP-55,940); settings: for IC50: Cannabinoid CB1 Receptor Binding IC50, calculated by linear regression from percent inhibition at various test concentrations; for inhibition at 0.2 µM: read-out: CB1 receptor binding percent inhibition, test concentration 0.2 μM (footnote 2)
Outline: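 Membranes from SK-N-MC cells stably expressing human CB1 incubated with compound and [3H]-CP-55,940 ([…]) for 90 min at 30° C in Tris-HCl pH 7.5, MgCl2, EDTA, fatty-acid-free BSA. Non-specific binding defined with 10 uM WIN 55,212; filtration, scintillation count; IC50 by linear regression.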

[4] = target: T1, CB2 receptor; experiment: Binding assay for CB2 agonists or inverse agonists (SK-N-MC membranes, [3H]-CP-55,940); settings: for IC50: Cannabinoid CB2 Receptor Binding IC50, calculated by linear regression from percent inhibition at various test concentrations; for inhibition at 0.2 µM: read-out: CB2 receptor binding percent inhibition, test concentration 0.2 μM (footnote 2)
Outline: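 Membranes from SK-N-MC cells stably expressing human CB2 were incubated with radioligand and test compounds for 90 min at 30 °C in Tris-HCl buffer, pH 7.5, with MgCl2, EDTA and fatty-acid-free BSA. Filter-bound radioactivity was counted; IC50 was derived by linear regression of percent inhibition.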

[5] = tested on: Male CD-1 mice; experiment: Oil of mustard induced colitis model; assay type: in vivo
Source text: In the distal colon, the oil of mustard colitis model is characterized by a discontinuous pattern of mucosal epithelial damage, submucosal edema, infiltration of inflammatory cells (including macrophages, neutrophils and lymphocytes) into the mucosa and submucosa, increased wet weight of the colon, shrinkage of the colon length, diarrhea and apparent inflammation (see, Kimball E. S., Palmer J. M., D'Andrea M. R., Homby P. J. and Wade P. R., Acute colitis induction by oil of mustard results in later development of an IBS-like accelerated upper GI transit in mice, Am. J Physiol. Gastrointest. Liver Physiol., 2005, 288: G 1266-1273).
Male CD-1 mice (Charles River Laboratories, Kingston, N.C.) (9-11 weeks old) and fresh oil of mustard (OM) (allyl isothiocyanate, 98% purity, Sigma-Aldrich St. Louis, Mo.) were used.
The mice (9 per treatment group) were briefly anesthetized with ketamine/xylasine (Sigma, St. Louis, Mo.) and a solution of 0.5% OM in 30% ethanol (50 μL) was administered intracolonically (to a depth of 4 cm) via syringe (equipped with a ball-tipped 22 G needle).
A test compound was orally administered one day prior to colitis induction for assessing a prophylactic regimen or one day post-induction for assessing a therapeutic regimen. A test compound was orally administered daily thereafter. Two days after OM administration, the last test compound dose was administered.
Three days after OM administration, the animals were sacrificed. The colons were resected, examined for signs of inflammation, weighed after removing fecal contents and the length from the aboral end of the cecum to the anus was measured. The fecal contents were examined for signs of diarrhea. The distal colon between the 1st and the 4th centimeter was removed and placed in 10% neutral buffered formalin for histological analysis.
The macroscopic observations of colon inflammation (a measure of colon damage), colon weight and length and stool consistency and appearance were assigned a score and used to evaluate colitis severity.
The four observation scores for each colon were combined, whereby a combined score of 0 represents a normal colon and a combined score of 15 represents a maximally affected colon. Statistical analyses were performed in Graphpad Prism 4.0 using ANOVA.
Histological analyses of tissues consisted of staining paraffin-embedded tissue sections with hematoxylin-eosin dye. The tissues were examined using light microscopy by an investigator who was blinded to the sample groups.
The microscopic observations of epithelial damage, cellular infiltration and damage or alteration of smooth muscle architecture (a measure of muscle damage) were assigned a score and used to evaluate colitis severity.
The scores for each colon were combined, whereby a combined score of 0 represents a normal colon and a combined score of 9 represents a maximally affected colon. Statistical analyses were performed in Graphpad Prism 4.0 using ANOVA.
The Macroscopic Score and Microscopic Score results for each treatment group in the prophylactic and therapeutic regimens were each combined into a mean score and expressed as % inhibition of colitis (% Inh). Test (#) represents the number of experiments at each dose level.

T1 sequence (P34972 whole entry): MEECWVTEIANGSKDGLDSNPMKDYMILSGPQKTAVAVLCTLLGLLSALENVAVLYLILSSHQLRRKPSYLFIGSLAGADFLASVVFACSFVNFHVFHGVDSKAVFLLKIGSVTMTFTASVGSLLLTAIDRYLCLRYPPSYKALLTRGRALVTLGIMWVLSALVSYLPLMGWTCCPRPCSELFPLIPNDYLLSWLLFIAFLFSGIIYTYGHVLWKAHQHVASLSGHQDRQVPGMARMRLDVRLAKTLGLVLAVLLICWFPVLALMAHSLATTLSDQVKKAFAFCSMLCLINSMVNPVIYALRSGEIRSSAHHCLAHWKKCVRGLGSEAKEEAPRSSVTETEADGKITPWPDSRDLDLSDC
T2 sequence (P21554 whole entry): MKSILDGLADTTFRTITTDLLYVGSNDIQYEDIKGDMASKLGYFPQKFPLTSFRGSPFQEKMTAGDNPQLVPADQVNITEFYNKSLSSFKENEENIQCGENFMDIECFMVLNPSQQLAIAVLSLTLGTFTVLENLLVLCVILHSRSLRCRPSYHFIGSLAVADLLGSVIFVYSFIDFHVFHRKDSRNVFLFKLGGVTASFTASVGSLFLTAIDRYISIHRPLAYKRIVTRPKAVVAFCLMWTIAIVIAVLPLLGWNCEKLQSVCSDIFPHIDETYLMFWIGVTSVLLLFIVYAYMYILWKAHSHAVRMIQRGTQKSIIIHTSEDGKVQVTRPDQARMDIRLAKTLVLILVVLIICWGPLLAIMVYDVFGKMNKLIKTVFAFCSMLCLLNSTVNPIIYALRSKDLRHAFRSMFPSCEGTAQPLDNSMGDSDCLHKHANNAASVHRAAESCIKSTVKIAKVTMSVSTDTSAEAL

Row | SMILES | EC50 [1] [nM] | EC50 [2] [nM] | IC50 [3] [nM] | inhibition at 0.2 µM [3] [%] | IC50 [4] [nM] | inhibition at 0.2 µM [4] [%] | % Inh (Macro), % inhibition of colitis, macroscopic score ([5]; Prophylactic Regimen, 2.5 mg/kg oral) [%] | % Inh (Macro), % inhibition of colitis, macroscopic score ([5]; Prophylactic Regimen, 5 mg/kg oral) [%] | % Inh (Macro), % inhibition of colitis, macroscopic score ([5]; Therapeutic Regimen, 5 mg/kg oral) [%] | inhibition at 1 µM ([3]; read-out: CB1 receptor binding percent inhibition, test concentration 1 μM (footnote 1)) [%] | inhibition at 0.015 µM ([4]; test concentration 0.015 μM (footnote 7), read-out: CB2 receptor binding percent inhibition) [%] | inhibition at 1 µM ([4]; test concentration 1 μM (footnote 1), read-out: CB2 receptor binding percent inhibition) [%] | CB2 receptor binding percent inhibition ([4]; test concentration not stated) [%]
1 | COC(=O)[C@H](Cc1ccc(F)cc1)NC(=O)c1n[nH]c2c1CCCC/C2=C\c1cccc(Cl)c1 [Cpd 240, (8E)-(2S)-2-{[8-(3-chloro-benzylidene)-1,4,5,6,7,8-hexahydro-cycloheptapyrazole-3-carbonyl]-amino}-3-(4-fluoro-phenyl)-propionic acid methyl ester] | 13 | 1600 | 200 | 35 | 40 | 78 | – | – | – | – | – | – | –
2 | COC(=O)[C@@H](Cc1ccc(F)cc1)NC(=O)c1n[nH]c2c1CCCC/C2=C\c1ccc(Cl)cc1 [Cpd 247, (8E)-(2R)-2-{[8-(4-chloro-benzylidene)-1,4,5,6,7,8-hexahydro-cycloheptapyrazole-3-carbonyl]-amino}-3-(4-fluoro-phenyl)-propionic acid methyl ester] | 4 | 8 | 2 | 91 | 1 | 96 | – | – | – | – | – | – | –
3 | O=C(N[C@@H](CO)c1ccccc1)c1n[nH]c2c1CCCC/C2=C\c1cccc(Cl)c1 [Cpd 239, (8E)-8-(3-chloro-benzylidene)-1,4,5,6,7,8-hexahydro-cycloheptapyrazole-3-carboxylic acid [(1R)-2-hydroxy-1-phenyl-ethyl]-amide] | 0.6 | 20 | 30 | 80 | 20 | 91 | – | – | – | – | – | – | –
4 | C[C@H](NS(=O)(=O)/C=C/c1n[nH]c2c1CCCCC2Cc1cccc(F)c1)c1ccccc1 (stereo partly drawn) [Cpd 96, (2E)-2-[8-(3-fluoro-benzyl)-1,4,5,6,7,8-hexahydro-cycloheptapyrazol-3-yl]-ethenesulfonic acid [(1S)-1-phenyl-ethyl]-amide] | – | – | – | – | – | – | 8.0 ± 16.7 | 10.8 ± 13.4 | 7.6 ± 11.5 | 0 | 50 | 94 | 72
5 | COC(=O)[C@H](Cc1ccc(F)cc1)NC(=O)c1n[nH]c2c1CCCC/C2=C\c1ccc(Cl)cc1 [Cpd 238, (8E)-(2S)-2-{[8-(4-chloro-benzylidene)-1,4,5,6,7,8-hexahydro-cycloheptapyrazole-3-carbonyl]-amino}-3-(4-fluoro-phenyl)-propionic acid methyl ester] | 1 | 150 | 30 | 85 | 10 | 93 | – | – | – | – | – | – | –
6 | Cn1nc(C(=O)N[C@H](CO)Cc2ccc(O)cc2)c2c1/C(=C/c1cccc(F)c1)CCCC2 [Cpd 244, (8E)-(2S)-8-(3-fluoro-benzylidene)-1-methyl-1,4,5,6,7,8-hexahydro-cycloheptapyrazole-3-carboxylic acid [1-hydroxymethyl-2-(4-hydroxy-phenyl)-ethyl]-amide] | 5 | 600 | 100 | 68 | 20 | 78 | – | – | – | – | – | – | –
7 | O=C(N[C@@H](CO)c1ccccc1)c1n[nH]c2c1CCCC/C2=C\c1ccc(Cl)cc1 [Cpd 234, (8E)-8-(4-chloro-benzylidene)-1,4,5,6,7,8-hexahydro-cycloheptapyrazole-3-carboxylic acid [(1R)-2-hydroxy-1-phenyl-ethyl]-amide] | 5 | 8 | 20 | 87 | 60 | 93 | – | – | – | – | – | – | –
8 | COC(=O)[C@H](Cc1ccc(F)cc1)NC(=O)c1nn(C)c2c1CCCC/C2=C\c1cccc(F)c1 [Cpd 241, (8E)-(2S)-2-{[8-(3-fluoro-benzylidene)-1-methyl-1,4,5,6,7,8-hexahydro-cycloheptapyrazole-3-carbonyl]-amino}-3-(4-fluoro-phenyl)-propionic acid methyl ester] | 18 | 2800 | 200 | 33 | 100 | 62 | – | – | – | – | – | – | –
9 | Cn1nc(C(=O)N[C@@H](CO)c2ccccc2)c2c1/C(=C/c1cccc(F)c1)CCCC2 [Cpd 242, (8E)-8-(3-fluoro-benzylidene)-1-methyl-1,4,5,6,7,8-hexahydro-cycloheptapyrazole-3-carboxylic acid [(1R)-2-hydroxy-1-phenyl-ethyl]-amide] | 11 | 30 | 20 | 80 | 100 | 50 | – | – | – | – | – | – | –
10 | COC(=O)[C@@H](Cc1ccc(F)cc1)NC(=O)c1n[nH]c2c1CCCC/C2=C\c1cccc(Cl)c1 [Cpd 245, (8E)-(2R)-2-{[8-(3-chloro-benzylidene)-1,4,5,6,7,8-hexahydro-cycloheptapyrazole-3-carbonyl]-amino}-3-(4-fluoro-phenyl)-propionic acid methyl ester] | 1 | 80 | 6 | 68 | 2 | 93 | – | – | – | – | – | – | –
11 | COC[C@@H](NC(=O)c1n[nH]c2c1CCCC[C@H]2Cc1cccc(Cl)c1)c1ccccc1 (stereo in doubt) [Cpd 252, (8S*)-(3-chloro-benzyl)-1,4,5,6,7,8-hexahydro-cycloheptapyrazole-3-carboxylic acid [(1S)-2-methoxy-1-phenyl-ethyl]-amide] | 19 | > 5000 | – | – | – | – | – | – | – | – | – | – | –
